How the values were obtained:
Test in all cases: relative viability (nuclei count vs DMSO), 5 days (fraction); higher = more cells survive
Tozasertib + Navitoclax = compound: Cc1cc(Nc2cc(N3CCN(C)CC3)nc(Sc3ccc(NC(=O)C4CC4)cc3)n2)n[nH]1 [Tozasertib] + CC1(C)CCC(c2ccc(Cl)cc2)=C(CN2CCN(c3ccc(C(=O)NS(=O)(=O)c4ccc(N[C@H](CCN5CCOCC5)CSc5ccccc5)c(S(=O)(=O)C(F)(F)F)c4)cc3)CC2)C1 [Navitoclax] (partner 0.5 µM)
Outline: (§1)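 Lung cancer cell lines in 1536-well plates were dosed by pin tool the day after seeding, either with one drug alone or with a fixed anchor-drug dose plus five library-drug doses (not always all listed) in √10 steps. After 5 days, cells were fixed and their nuclei stained in one step (final 0.05% Triton X-100, 1% formaldehyde, 1 ug/ml Hoechst), then counted on 4× images. Relative viability is the nuclei count in treated wells divided by that in vehicle wells. Values are medians of duplicate plates.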

Tozasertib + Foretinib = compound: Cc1cc(Nc2cc(N3CCN(C)CC3)nc(Sc3ccc(NC(=O)C4CC4)cc3)n2)n[nH]1 [Tozasertib] + COc1cc2c(Oc3ccc(NC(=O)C4(C(=O)Nc5ccc(F)cc5)CC4)cc3F)ccnc2cc1OCCCN1CCOCC1 [Foretinib] (partner 0.25 µM)
Outline: as §1

Tozasertib + Phenformin = compound: Cc1cc(Nc2cc(N3CCN(C)CC3)nc(Sc3ccc(NC(=O)C4CC4)cc3)n2)n[nH]1 [Tozasertib] + N=C(N)NC(=N)NCCc1ccccc1 [Phenformin] (partner 250 µM)
Outline: as §1

Tozasertib + Pemetrexed = compound: Cc1cc(Nc2cc(N3CCN(C)CC3)nc(Sc3ccc(NC(=O)C4CC4)cc3)n2)n[nH]1 [Tozasertib] + Nc1nc2[nH]cc(CCc3ccc(C(=O)N[C@@H](CCC(=O)O)C(=O)O)cc3)c2c(=O)[nH]1 [Pemetrexed] (partner 0.2 µM)
Outline: as §1

Tozasertib + Olaparib = compound: Cc1cc(Nc2cc(N3CCN(C)CC3)nc(Sc3ccc(NC(=O)C4CC4)cc3)n2)n[nH]1 [Tozasertib] + O=C(c1cc(Cc2n[nH]c(=O)c3ccccc23)ccc1F)N1CCN(C(=O)C2CC2)CC1 [Olaparib] (partner 8 µM)
Outline: as §1

Row | Cell Line | relative viability (Tozasertib + Navitoclax; first compound 0.004 µM) | relative viability (Tozasertib + Navitoclax; first compound 0.01265 µM) | relative viability (Tozasertib + Navitoclax; first compound 0.04 µM) | relative viability (Tozasertib + Navitoclax; first compound 0.1265 µM) | relative viability (Tozasertib + Foretinib; first compound 0.004 µM) | relative viability (Tozasertib + Foretinib; first compound 0.01265 µM) | relative viability (Tozasertib + Foretinib; first compound 0.04 µM) | relative viability (Tozasertib + Foretinib; first compound 0.1265 µM) | relative viability (Tozasertib + Phenformin; first compound 0.004 µM) | relative viability (Tozasertib + Phenformin; first compound 0.01265 µM) | relative viability (Tozasertib + Phenformin; first compound 0.04 µM) | relative viability (Tozasertib + Phenformin; first compound 0.1265 µM) | relative viability (Tozasertib + Pemetrexed; first compound 0.004 µM) | relative viability (Tozasertib + Pemetrexed; first compound 0.01265 µM) | relative viability (Tozasertib + Pemetrexed; first compound 0.04 µM) | relative viability (Tozasertib + Pemetrexed; first compound 0.1265 µM) | relative viability (Tozasertib + Olaparib; first compound 0.004 µM) | relative viability (Tozasertib + Olaparib; first compound 0.01265 µM) | relative viability (Tozasertib + Olaparib; first compound 0.04 µM) | relative viability (Tozasertib + Olaparib; first compound 0.1265 µM)
1 | NCI-H2023 | 1.04 | 0.983 | 1.05 | 0.924 | 0.747 | 0.968 | 0.94 | 0.652 | 0.393 | 0.393 | 0.407 | 0.258 | 0.239 | 0.241 | 0.246 | 0.213 | 0.486 | 0.459 | 0.553 | 0.342
2 | NCI-H2085 | 1.14 | 1.12 | 1.13 | 0.816 | 1.03 | 0.767 | 1.03 | 0.703 | 0.759 | 0.744 | 0.731 | – | 0.935 | 0.815 | 1.03 | 0.802 | 0.82 | 0.752 | 0.782 | 0.711
3 | NCI-H2087 | 1.01 | 0.872 | 1.1 | 0.644 | 1.16 | 0.796 | 1.15 | 0.613 | 0.487 | 0.443 | 0.539 | 0.344 | 0.72 | 0.698 | 0.671 | 0.688 | 0.595 | 0.645 | 0.609 | 0.456
4 | NCI-H2126 | 0.842 | 0.802 | 0.963 | 0.865 | 1.19 | 1.24 | 1.29 | 1.12 | 0.604 | 0.562 | 0.467 | 0.51 | 0.688 | 0.736 | – | 0.729 | 0.962 | 0.939 | 0.971 | 0.92
5 | NCI-H2170 | 0.556 | 0.565 | 0.583 | 0.557 | 0.985 | 0.591 | – | 0.907 | 0.33 | 0.364 | 0.436 | 0.366 | 0.289 | 0.241 | 0.293 | 0.271 | 0.566 | 0.636 | 0.572 | 0.519
6 | NCI-H2228 | 0.717 | – | 1.23 | 1.06 | 0.947 | 0.803 | 0.851 | 0.356 | 0.375 | 0.298 | 0.254 | 0.132 | 0.319 | 0.32 | 0.376 | 0.322 | 0.616 | 0.511 | 0.622 | 0.366
7 | NCI-H2347 | 0.921 | 0.761 | 0.901 | 0.755 | 1.17 | 0.908 | 0.842 | 0.87 | 0.45 | – | 0.433 | 0.377 | 0.44 | 0.461 | 0.45 | 0.432 | 0.528 | 0.616 | 0.697 | 0.582
8 | NCI-H2405 | 0.795 | 0.95 | 0.671 | 0.871 | 1.09 | 1 | 1.01 | 0.974 | 0.392 | 0.402 | 0.424 | 0.408 | 1.01 | 1.12 | 0.973 | 0.894 | 0.913 | – | 0.691 | –
9 | NCI-H3122 | 0.996 | 1 | 1.04 | 1.05 | 0.969 | 0.94 | 0.977 | 0.944 | 0.38 | 0.346 | 0.366 | 0.312 | 0.193 | 0.214 | 0.191 | 0.218 | 0.646 | 0.67 | 0.62 | 0.641
10 | PC-3 [JPC-3] | 0.579 | 0.699 | 0.935 | 0.756 | 1 | 1.06 | 1.07 | 0.961 | 0.377 | 0.49 | 0.536 | 0.469 | 1.08 | 1.01 | 1.21 | 0.919 | 0.807 | 1.15 | 1.16 | 1.14
11 | PC-14 | 1.03 | – | 1.01 | – | 0.966 | 1.09 | 1.04 | 0.986 | 0.248 | 0.359 | 0.556 | 0.257 | – | 0.145 | 0.143 | 0.125 | – | 0.208 | 0.256 | 0.224
12 | RERF-LC-KJ | 0.994 | 0.93 | 0.804 | 0.997 | 0.795 | 0.831 | 0.957 | – | 0.443 | 0.425 | 0.485 | 0.435 | 0.465 | 0.442 | 0.486 | 0.361 | 0.945 | 0.871 | 0.865 | 0.668
13 | SK-LU-1 | 0.894 | 0.939 | 0.981 | 0.635 | 0.889 | 0.874 | 0.862 | 0.752 | 0.55 | 0.569 | 0.578 | 0.324 | 1.05 | 0.961 | 1.09 | 0.964 | 0.466 | 0.455 | 0.432 | 0.518
14 | SK-MES-1 | 1.17 | 1.23 | 1.4 | 1.02 | 0.934 | 0.814 | 0.884 | 1.03 | 0.691 | 0.642 | 0.71 | 0.696 | 0.907 | 0.892 | 1.02 | 0.769 | 0.791 | 0.666 | 0.71 | 0.657
15 | SW 1573 | 1.1 | 1.06 | 1.15 | 0.816 | 0.839 | 0.905 | 1.02 | 0.8 | 0.35 | 0.393 | 0.361 | 0.284 | 0.793 | 0.796 | 0.848 | 0.212 | 0.479 | 0.452 | 0.456 | 0.208
16 | UMC-11 | 0.381 | 0.295 | 0.303 | 0.13 | 0.985 | 0.995 | 0.788 | 0.186 | 0.372 | 0.308 | 0.3 | 0.171 | 0.852 | 0.809 | 0.78 | 0.26 | 0.367 | 0.47 | 0.362 | 0.257

Source: the supplement of paper PMC10307832
